# Measured values published in patent publication US9751854B2 (Millennium Pharmaceuticals, Inc., priority 2014, dated 2017).
# Molecular target: human VPS34 (Homo sapiens (Human), UniProt Q8NEB9)
# Assay: Human VPS34 enzyme assay (Adapta TR-FRET ADP detection)
# Type: biochemical
# Settings: IC50 range class
# human VPS34, sequence (Q8NEB9 whole entry): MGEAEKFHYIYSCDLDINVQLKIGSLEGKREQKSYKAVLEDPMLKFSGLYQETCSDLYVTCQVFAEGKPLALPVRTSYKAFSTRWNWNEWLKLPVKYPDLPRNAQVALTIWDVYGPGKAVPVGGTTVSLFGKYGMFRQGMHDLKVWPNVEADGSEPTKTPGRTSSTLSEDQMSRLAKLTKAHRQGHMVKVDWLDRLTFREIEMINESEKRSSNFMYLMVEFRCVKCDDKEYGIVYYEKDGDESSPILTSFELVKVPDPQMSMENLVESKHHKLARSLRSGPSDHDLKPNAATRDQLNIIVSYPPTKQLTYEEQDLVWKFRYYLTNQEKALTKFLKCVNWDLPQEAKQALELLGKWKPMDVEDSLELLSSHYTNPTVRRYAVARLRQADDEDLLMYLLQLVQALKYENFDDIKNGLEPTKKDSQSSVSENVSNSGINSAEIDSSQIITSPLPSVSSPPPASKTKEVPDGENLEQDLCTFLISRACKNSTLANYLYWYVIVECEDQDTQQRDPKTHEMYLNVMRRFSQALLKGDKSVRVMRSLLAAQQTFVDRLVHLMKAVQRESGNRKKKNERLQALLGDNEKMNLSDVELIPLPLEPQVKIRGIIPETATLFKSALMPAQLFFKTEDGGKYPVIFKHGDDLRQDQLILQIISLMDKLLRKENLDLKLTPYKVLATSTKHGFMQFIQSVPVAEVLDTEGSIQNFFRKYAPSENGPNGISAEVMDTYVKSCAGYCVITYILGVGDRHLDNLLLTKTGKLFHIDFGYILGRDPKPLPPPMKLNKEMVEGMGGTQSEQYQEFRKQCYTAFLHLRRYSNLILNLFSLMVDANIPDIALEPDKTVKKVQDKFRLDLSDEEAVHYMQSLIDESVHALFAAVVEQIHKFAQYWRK
row,IC50 [nM],Structure (SMILES)
1,< 10,"CC(=O)Nc1cc(-c2cnc(N)c(C(=O)NC34CC(C3)C4)c2)ccn1 [Compound I-187, 2′-acetamido-6-amino-N-(bicyclo[1.1.1]pent-1-yl)-3,4′-bipyridine-5-carboxamide]"
2,50 to 100,"CC(=O)Nc1cc(-c2cncc(/C=C/C(=O)c3ccc(F)cc3)c2)ccn1 [Compound I-188, N-{5-[(1E)-3-(4-fluorophenyl)-3-oxoprop-1-en-1-yl]-3,4′-bipyridin-2′-yl}acetamide]"
3,50 to 100,"CC(=O)Nc1cc(-c2cnc3[nH]ncc3c2)ccn1 [Compound I-189, N-[4-(1H-pyrazolo[3,4-b]pyridin-5-yl)pyridin-2-yl]acetamide]"
4,10 to 50,"CC(=O)Nc1cc(-c2cncc(S(=O)(=O)NC34CC(C3)C4)c2)ccn1 [Compound I-190, N-[5-(bicyclo[1.1.1]pent-1-ylsulfamoyl)-3,4′-bipyridin-2′-yl]acetamide]"
5,> 100,"CC(=O)Nc1cc(-c2cc(S(C)(=O)=O)c[n+]([O-])c2)ccn1 [Compound I-191, N-{4-[5-(methylsulfonyl)-1-oxidopyridin-3-yl]pyridin-2-yl}acetamide]"
6,50 to 100,"CC(=O)Nc1cc(-c2cncc(N3CCCS3(=O)=O)c2)ccn1 [Compound I-192, N-[5-(1,1-dioxidoisothiazolidin-2-yl)-3,4′-bipyridin-2′-yl]acetamide]"
7,50 to 100,"CC(=O)Nc1cc(-c2cnc(C)c(NC(C)=O)c2)ccn1 [Compound I-193, N,N′-(6-methyl-3,4′-bipyridine-2′,5-diyl)diacetamide]"
8,> 100,"CC(=O)Nc1cc(-c2cncc(C(C)=O)c2)ccn1 [Compound I-194, N-(5-acetyl-3,4′-bipyridin-2′-yl)acetamide]"
9,< 10,"COC(=O)Nc1cc(-c2cnc(C)c(NS(=O)(=O)c3ccc(F)cc3F)c2)ccn1 [Compound I-195, methyl (5-{[(2,4-difluorophenyl)sulfonyl]amino}-6-methyl-3,4′-bipyridin-2′-yl)carbamate]"

# Second part, the compound before the results:
row,Structure (SMILES),IC50 [nM]
1,"CC(=O)Nc1cc(-c2cnc(C)c(NS(=O)(=O)c3ccc(F)cc3F)c2)c(C)cn1 [Compound I-177, N-(5-{[(2,4-difluorophenyl)sulfonyl]amino}-5′,6-dimethyl-3,4′-bipyridin-2′-yl)acetamide]",10 to 50
2,"CC(=O)Nc1cc(-c2cnc(C)c(NS(=O)(=O)c3cc(C)ccc3C)c2)ccn1 [Compound I-178, N-(5-{[(2,5-dimethylphenyl)sulfonyl]amino}-6-methyl-3,4′-bipyridin-2′-yl)acetamide]",< 10
3,"CC(=O)Nc1cc(-c2cnc(N)c(C(=O)Nc3cccc(F)c3F)c2)ccn1 [Compound I-179, 2′-acetamido-6-amino-N-(2,3-difluorophenyl)-3,4′-bipyridine-5-carboxamide]",< 10
4,COC(=O)Nc1cc(-c2cncc(C(=O)C3CC3)c2)ccn1 [Compound I-180],50 to 100
5,"CC(=O)Nc1cc(-c2cnc(N)c(N3CCCS3(=O)=O)c2)ccn1 [Compound I-181, N-[6-amino-5-(1,1-dioxidoisothiazolidin-2-yl)-3,4′-bipyridin-2′-yl]acetamide]",< 10
6,"CC(=O)Nc1cc(-c2cnc(C)c(NS(=O)(=O)c3ccc(C)cc3F)c2)ccn1 [Compound I-182, N-(5-{[(2-fluoro-4-methylphenyl)sulfonyl]amino}-6-methyl-3,4′-bipyridin-2′-yl)acetamide]",< 10
7,"CC(=O)Nc1cc(-c2cnc(N)c(S(=O)(=O)NCC3CCCCC3)c2)ccn1 [Compound I-183, N-{6-amino-5-[(cyclohexylmethyl)sulfamoyl]-3,4′-bipyridin-2′-yl}acetamide]",< 10
8,"CC(=O)Nc1cc(-c2cncc(C=O)c2)ccn1 [Compound I-184, N-(5-formyl-3,4′-bipyridin-2′-yl)acetamide]",> 100
9,"CC(=O)Nc1cc(-c2cnc(C)c(NS(=O)(=O)c3ccc(F)cc3)c2)ccn1 [Compound I-185, N-(5-{[(4-fluorophenyl)sulfonyl]amino}-6-methyl-3,4′-bipyridin-2′-yl)acetamide]",< 10
10,CC(=O)Nc1cc(-c2cnc(N)c(S(=O)(=O)N(C)C)c2)c(F)cn1 [Compound I-186],10 to 50
